# Laboratory results: PubChem BioAssay AID2060493 (Molecular Pharmacology Branch, DTP, NCI, 2025)
# pIC50: −log10 of the molar value.
# System: 616215-338-R-J1-PDC tumor spheroids, viability
# Test: Anticancer human tumor 616215-338-R-J1-PDC patient-derived colon adenocarcinoma cell line growth inhibition [GQUAD]
# Settings: spheroids with HUVEC and MSC; for pIC50: curve of first compound; for viability, T/C: stronger effect = lower value
# How it was run: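 Viability of tumor cells grown as complex spheroids with endothelial and stromal cells, exposed to drug combinations. Top concentration at or near clinical Cmax (else 10 microM), diluted in half-log increments.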
# [1] = second compound 0.0316 µM, first compound 0.0316 µM
# [2] = second compound 0.0316 µM, first compound 0.1 µM
# [3] = second compound 0.0316 µM, first compound 0.316 µM
# [4] = second compound 0.0316 µM, first compound 1 µM
# [5] = second compound 0.0316 µM, first compound 3.16 µM
# [6] = second compound 0.0316 µM, first compound 10 µM
# [7] = second compound 0.1 µM, first compound 0.0316 µM
# [8] = second compound 0.1 µM, first compound 0.1 µM
# [9] = second compound 0.1 µM, first compound 0.316 µM
# [10] = second compound 0.1 µM, first compound 1 µM
# [11] = second compound 0.1 µM, first compound 3.16 µM
# [12] = second compound 0.1 µM, first compound 10 µM
# [13] = second compound 0.316 µM, first compound 0.0316 µM
# [14] = second compound 0.316 µM, first compound 0.1 µM
# [15] = second compound 0.316 µM, first compound 0.316 µM
# [16] = second compound 0.316 µM, first compound 1 µM
# [17] = second compound 0.316 µM, first compound 3.16 µM
# [18] = second compound 0.316 µM, first compound 10 µM
# [19] = second compound 1 µM, first compound 0.0316 µM
# [20] = second compound 1 µM, first compound 0.1 µM
# [21] = second compound 1 µM, first compound 0.316 µM
# [22] = second compound 1 µM, first compound 1 µM
# [23] = second compound 1 µM, first compound 3.16 µM
# [24] = second compound 1 µM, first compound 10 µM
# [25] = second compound 3.16 µM, first compound 0.0316 µM
# [26] = second compound 3.16 µM, first compound 0.1 µM
# [27] = second compound 3.16 µM, first compound 0.316 µM
# [28] = second compound 3.16 µM, first compound 1 µM
# [29] = second compound 3.16 µM, first compound 3.16 µM
# [30] = second compound 3.16 µM, first compound 10 µM
# [31] = second compound 10 µM, first compound 0.0316 µM
# [32] = second compound 10 µM, first compound 0.1 µM
# [33] = second compound 10 µM, first compound 0.316 µM
# [34] = second compound 10 µM, first compound 1 µM
# [35] = second compound 10 µM, first compound 3.16 µM
# [36] = second compound 10 µM, first compound 10 µM
# 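Further: spheroids exposed to agents for 7 days before readout.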
# 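Wherever viability, T/C is given: percent viability relative to DMSO vehicle control wells taken as 100%.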
smiles,measurement,setting,value
COc1cccc2c1C(=O)c1c(O)c3c(c(O)c1C2=O)CC(O)(C(=O)CO)CC3OC1CC(N)C(O)C(C)O1 (centres undefined) + Cc1[nH]c2ccc(F)cc2c1-c1nc2c3cccnc3c3ncccc3c2[nH]1,pIC50,second compound 0.0316 µM,6.11
same,pIC50,second compound 0.1 µM,6.30
same,pIC50,second compound 0.316 µM,6.26
same,pIC50,second compound 1 µM,6.03
same,pIC50,second compound 3.16 µM,6.30
same,pIC50,second compound 10 µM,6.21
same,"viability, T/C",[1],108%
same,"viability, T/C",[2],88.2%
same,"viability, T/C",[3],58.6%
same,"viability, T/C",[4],39.3%
same,"viability, T/C",[5],38.8%
same,"viability, T/C",[6],2.47%
same,"viability, T/C",[7],96.8%
same,"viability, T/C",[8],92.8%
same,"viability, T/C",[9],46.3%
same,"viability, T/C",[10],41.5%
same,"viability, T/C",[11],21.6%
same,"viability, T/C",[12],4%
same,"viability, T/C",[13],105%
same,"viability, T/C",[14],75.5%
same,"viability, T/C",[15],53.7%
same,"viability, T/C",[16],49%
same,"viability, T/C",[17],18.7%
same,"viability, T/C",[18],2.01%
same,"viability, T/C",[19],91.7%
same,"viability, T/C",[20],91.2%
same,"viability, T/C",[21],71.6%
same,"viability, T/C",[22],44.5%
same,"viability, T/C",[23],27.6%
same,"viability, T/C",[24],2.3%
same,"viability, T/C",[25],89.2%
same,"viability, T/C",[26],84.6%
same,"viability, T/C",[27],50%
same,"viability, T/C",[28],39%
same,"viability, T/C",[29],23.4%
same,"viability, T/C",[30],1.17%
same,"viability, T/C",[31],103%
same,"viability, T/C",[32],76.2%
same,"viability, T/C",[33],55.6%
same,"viability, T/C",[34],54.8%
same,"viability, T/C",[35],20.1%
same,"viability, T/C",[36],1.64%
CC(C)(O)C1CCC(Nc2ccc3ncc(-c4cccc(C(F)(F)F)c4)n3n2)CC1 (centres undefined) + Cc1cnc(CNC(=O)c2c(=O)c3ccc(N4CCCN(C)CC4)nc3n3c2sc2ccccc23)cn1,pIC50,second compound 0.0316 µM,6.24
same,pIC50,second compound 0.1 µM,6.45
same,pIC50,second compound 0.316 µM,> 7.50
same,pIC50,second compound 1 µM,> 7.50
same,pIC50,second compound 3.16 µM,> 7.50
same,pIC50,second compound 10 µM,> 7.50
same,"viability, T/C",[1],96.8%
same,"viability, T/C",[2],86.9%
same,"viability, T/C",[3],82.1%
same,"viability, T/C",[4],19.8%
same,"viability, T/C",[5],1.65%
same,"viability, T/C",[6],2.16%
same,"viability, T/C",[7],67.2%
same,"viability, T/C",[8],73.2%
same,"viability, T/C",[9],53.1%
same,"viability, T/C",[10],13.9%
same,"viability, T/C",[11],4.15%
same,"viability, T/C",[12],1.36%
same,"viability, T/C",[13],36.8%
same,"viability, T/C",[14],50.2%
same,"viability, T/C",[15],37.3%
same,"viability, T/C",[16],14.8%
same,"viability, T/C",[17],0.03%
same,"viability, T/C",[18],2.26%
same,"viability, T/C",[19],32.5%
same,"viability, T/C",[20],32.1%
same,"viability, T/C",[21],28.7%
same,"viability, T/C",[22],13.3%
same,"viability, T/C",[23],0.05%
same,"viability, T/C",[24],0.06%
same,"viability, T/C",[25],20.9%
same,"viability, T/C",[26],24.2%
same,"viability, T/C",[27],29.9%
same,"viability, T/C",[28],3.87%
same,"viability, T/C",[29],0.1%
same,"viability, T/C",[30],0.12%
same,"viability, T/C",[31],19.6%
same,"viability, T/C",[32],24.7%
same,"viability, T/C",[33],27.8%
same,"viability, T/C",[34],0.18%
same,"viability, T/C",[35],0.22%
same,"viability, T/C",[36],0.2%
